One series addresses human BACE1 (Homo sapiens, UniProt P56817). The series is described as follows: Fluorescent kinetic assay: Evaluation of BACE-1 Binding Affinity of Test Compounds. The note with it: 10 nM enzyme, 25 μM substrate WABC-6, 50 mM Na-Acetate pH 4.5, room temperature. The format is biochemical. Here is the method: Evaluation of BACE-1 Binding Affinity of Test Compounds
Fluorescent Kinetic Assays
Final Assay Conditions: 10 nM human BACE1 (or 10 nM Murine BACE1, 1.5 nM human BACE2), 25 μM substrate (WABC-6, MW 1549.6, from AnaSpec), Buffer: 50 mM Na-Acetate, pH 4.5, 0.05% CHAPS, 25% PBS, room temperature. Na-Acetate was from Aldrich, Cat.# 24, 124-5, CHAPS was from Research Organics, Cat. # 1304C 1×, PBS was from Mediatech (Cellgro), Cat# 21-031-CV, peptide substrate Abz[…]pa was from AnaSpec, Peptide Name: WABC-6 Determination of stock substrate (Abz[…]pa) concentration: ˜25 mM stock solution is made in DMSO using the peptide weight and MW, and diluted to ˜25 μM (1:1000) in 1×PBS. Concentration is determined by absorbance at 354 nm using an extinction coefficient ε of 18172 M^−1 cm^−1, the concentration of stock substrate is corrected, and the substrate stock stored in small aliquots in −80° C. [Substrate Stock]=ABS^354 nm*10^6/18172 (in […]) The extinction coefficient ε^354 nm was adapted from TACE peptide substrate, which had the same quencher-fluorophore pair.
Determination of Stock Enzyme Concentration: the stock concentration of each enzyme is determined by absorbance at 280 nm using an ε of 64150 M^−1 cm^−1 for hBACE1 and MuBACE1, 62870 M^−1 cm^−1 for hBACE2 in 6 M Guanidinium Hydrochloride (from Research Organics, Cat. # 5134G-2), pH ˜6. The extinction coefficient ε^280 nm for each enzyme was calculated based on known amino acid composition and published extinction coefficients for Trp ([…]) and Tyr ([…]) residues (Anal. Biochem. 182, 319-326).
Dilution and mixing steps: total reaction volume: 100 μL
2× inhibitor dilutions in buffer A(66.7 mM Na-Acetate, pH 4.5, 0.0667% CHAPS) were prepared,
4× enzyme dilution in buffer A(66.7 mM Na-Acetate, pH 4.5, 0.0667% CHAPS) were prepared,
100 μM substrate dilution in 1×PBS was prepared, and
50 μL 2× Inhibitor, 25 μL 100 μM substrate are added to each well of 96-well plate (from DYNEX Technologies, VWR #: 11311-046), immediately followed by 25 μL 4× enzyme (added to the inhibitor and substrate mix), and the fluorescence readings are initiated.
Fluorescence Readings: Readings at λex 320 nm and λem 420 nm are taken every 40 sec for 30 min at room temperature and the linear slope for substrate cleavage rate (vi) determined.
Testing at least 10 different inhibitor concentrations is preferred.

Here are results for 34 molecules from US7705030B2, “Amino-5-(5-membered)hetero-arylimidazolone compounds and the use thereof for β-secretase modulation” (Wyeth LLC, priority 2005, dated 2010).

Sequence of human BACE1 (P56817 46-501): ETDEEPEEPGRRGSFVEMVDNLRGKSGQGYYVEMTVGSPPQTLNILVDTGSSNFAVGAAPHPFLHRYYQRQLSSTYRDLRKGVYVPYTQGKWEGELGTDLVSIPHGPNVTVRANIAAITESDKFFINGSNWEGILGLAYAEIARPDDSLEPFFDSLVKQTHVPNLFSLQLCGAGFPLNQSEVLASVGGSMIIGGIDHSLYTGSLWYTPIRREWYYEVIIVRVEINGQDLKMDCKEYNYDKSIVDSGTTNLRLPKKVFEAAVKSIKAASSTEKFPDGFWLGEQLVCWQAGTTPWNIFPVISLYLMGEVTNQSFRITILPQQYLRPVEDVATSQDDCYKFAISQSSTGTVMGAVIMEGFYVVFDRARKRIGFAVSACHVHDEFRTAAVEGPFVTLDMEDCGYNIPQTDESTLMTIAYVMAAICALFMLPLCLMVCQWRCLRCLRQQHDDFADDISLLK

Broadly, the IC50 is the concentration that gives 50% inhibition. A low value points to higher potency. Usually melting point stands for the temperature of the solid-liquid transition. In turn, `COc1ccc(C2(c3ccc(-c4ccc(F)cc4)s3)N=C(N)N(C)C2=O)cc1C` (centres unmarked) [Example 110, 2-Amino-5-[5-(4-fluorophenyl)thien-2-yl]-5-(4-methoxy-3-methylphenyl)-3-methyl-3,5-dihydro-4H-imidazol-4-one] registered a melting point of 110 °C. The half-inhibitory concentration (IC50) on human BACE1 lay within 110 to 1000 nM.
`CCCOc1cccc(C2(c3cc(C(=O)CC)n(CC)c3)N=C(N)N(C)C2=O)c1` (centres unmarked) [Example 132, 2-Amino-5-(1-ethyl-5-propionyl-1H-pyrrol-3-yl)-3-methyl-5-(3-propoxyphenyl)-3,5-dihydro-4H-imidazol-4-one] showed a melting point of 95 °C. On human BACE1, the IC50 fell in the range of 10 to 100 nM.
`CN1C(=O)C(c2cccc(-c3cncnc3)c2)(c2csc(Cl)c2)N=C1N` (centres unmarked) [Example 32] came in with a melting point of 236 to 240 °C. At human BACE1, this molecule yielded a half-maximal inhibitory concentration (IC50) of 10 to 100 nM.
Molecule `CC(C)NCc1cc(C2(c3cccc(-c4cccnc4F)c3)N=C(N)N(C)C2=O)cn1CCF` (centres unmarked) [Example 236] returned a melting point of 98 to 99 °C. The IC50 on human BACE1 is greater than 1000 nM.
In the same order, the values of `CCOC(=O)c1cc(C2(c3ccc(F)c(-c4cccnc4F)c3)N=C(N)N(C)C2=O)cn1CC` (centres unmarked) [Example 125] are 114 to 115 °C and 10 to 100 nM.
In the case of `CN1C(=O)C(c2cccc(-c3cncnc3)c2)(c2cscn2)N=C1N` (centres unmarked) [Example 41, 2-Amino-3-methyl-5-(3-pyrimidin-5-ylphenyl)-5-(1,3-thiazol-4-yl)-3,5-dihydro-4H-imidazol-4-one], the melting point is 234 to 237 °C. For the same molecule, on human BACE1, the half-maximal inhibitory concentration (IC50) fell in the range of 110 to 1000 nM.
The corresponding values for `CN1C(=O)C(c2cccc(-c3cccc(F)c3F)c2)(c2cnn(CC(F)(F)F)c2)N=C1N` (centres unmarked) [Example 87] are 103 to 105 °C and 10 to 100 nM.
For `COC(=O)c1cc(C2(c3cccc(-c4ccc(F)c(F)c4)c3)N=C(N)N(C)C2=O)cn1CCF` (centres unmarked) [Example 198], the melting point was 125 to 128 °C. Also, at human BACE1, the IC50 lay in the range of 10 to 100 nM.
`CC(C)CCn1cc(C2(c3cccc(-c4cccnc4F)c3)N=C(N)N(C)C2=O)cn1` (centres unmarked) [Example 102] gave a melting point of 86 to 90 °C. The molecule further showed an IC50 on human BACE1 of 10 to 100 nM.
Take `Cc1nc(F)ccc1-c1cccc(C2(c3ccsc3)N=C(N)N(C)C2=O)c1` (centres unmarked) [Example 36]: the melting point was 140 °C. The concentration for half-maximal inhibition (IC50) at human BACE1 is greater than 1000 nM.
On to `CCCC(=O)Nc1cccc(C2(c3cc(C(=O)CC)n(CC)c3)N=C(N)N(C)C2=O)c1` (centres unmarked) [Example 129, N-{3-[2-amino-4-(1-ethyl-5-propionyl-1H-pyrrol-3-yl)-1-methyl-5-oxo-4,5-dihydro-1H-imidazol-4-yl]-phenyl}-butyramide], for which the melting point is 201 to 205 °C. Further, on human BACE1, the concentration for half-maximal inhibition (IC50) was in the range of 110 to 1000 nM.
With `CN1C(=O)C(c2cccc(O)c2)(c2cnn(CC(F)(F)F)c2)N=C1N` (centres unmarked) [Example 93, 2-amino-5-(3-hydroxyphenyl)-3-methyl-5-[1-(2,2,2-trifluoroethyl)-1H-pyrazol-4-yl]-3,5-dihydro-4H-imidazol-4-one], the melting point lay in the range of 118 to 120 °C. This molecule also displayed a half-inhibitory concentration (IC50) on human BACE1 greater than 1000 nM.
`CCn1cc([C@]2(c3ccc(F)c(-c4cccnc4F)c3)N=C(N)N(C)C2=O)cc1C(=O)OC` [Example 186, Methyl 4-{(4S)-2-amino-4-[4-fluoro-3-(2-fluoropyridin-3-yl)phenyl]-1-methyl-5-oxo-4,5-dihydro-1H-imidazol-4-yl-}-ethyl-1H-pyrrole-2-carboxylate] gave a melting point of 114 to 117 °C. The IC50 on human BACE1 lay within 10 to 100 nM.
The corresponding values for `CN1C(=O)C(c2cccc(-c3cc(C#N)ccc3F)c2)(c2cnn(CC(F)(F)F)c2)N=C1N` (centres unmarked) [Example 86] are 118 to 120 °C and 110 to 1000 nM.
The molecule `CCc1cc(C2(c3cccc(-c4cncnc4)c3)N=C(N)N(C)C2=O)cs1` (centres unmarked) [Example 29] gave a melting point of 144 to 146 °C. The IC50 at human BACE1 lay within 10 to 100 nM.
Regarding `CCCn1cc(C2(c3cccc(-c4cccnc4F)c3)N=C(N)N(C)C2=O)cc1C#N` (centres unmarked) [Example 230], the melting point lay in the range of 187 to 188 °C. The molecule further gave an IC50 at human BACE1 of 10 to 100 nM.
The corresponding values for `CN1C(=O)C(c2cccc(-c3cncnc3)c2)(c2ccn(CC(F)(F)F)c2)N=C1N` (centres unmarked) [Example 54] are 103 to 105 °C and 110 to 1000 nM.
In the same order, the values of `CCC(=O)c1cc(C2(c3cccc(-c4cccnc4F)c3)N=C(N)N(C)C2=O)cn1CCCC(F)(F)F` (centres unmarked) [Example 176] are 91 to 94 °C and 10 to 100 nM.
For `CN1C(=O)C(c2cccc(-c3cccnc3F)c2)(c2cnn(CCC(C)(C)C)c2)N=C1N` (centres unmarked) [Example 101], the melting point is 100 to 103 °C. At human BACE1, the half-maximal inhibitory concentration (IC50) was in the range of 10 to 100 nM.
For the molecule `CCC(=O)c1cc(C2(c3cccc(NC(=O)COC)c3)N=C(N)N(C)C2=O)cn1CC` (centres unmarked) [Example 131, N-{3-[2-amino-4-(1-ethyl-5-propionyl-1H-pyrrol-3-yl)-1-methyl-5-oxo-4,5-dihydro-1H-imidazol-4-yl]-phenyl}-2-methoxy-acetamide], the melting point was 95 to 115 °C. The 50% inhibitory concentration (IC50) at human BACE1 was 10 to 100 nM.
In turn, `CCC(=O)c1cc(C2(c3cccc(-c4cccc(C#N)c4)c3)N=C(N)N(C)C2=O)cn1CC(F)(F)F` (centres unmarked) [Example 206] displayed a melting point of 112 to 114 °C. The molecule also returned an IC50 at human BACE1 of 10 to 100 nM.
The corresponding values for `COC(=O)c1cc(C2(c3cccc(-c4cc(F)cc(F)c4)c3)N=C(N)N(C)C2=O)cn1CCF` (centres unmarked) [Example 193] are 173 to 176 °C and 10 to 100 nM.
As for `CCC(=O)c1cc(C2(c3cccc(-c4cccnc4F)c3)N=C(N)N(C)C2=O)cn1CCCF` (centres unmarked) [Example 152], the melting point was found to be 105 °C. The molecule also yielded a half-maximal inhibitory concentration (IC50) at human BACE1 of 10 to 100 nM.
The molecule `CCC(=O)c1cc(C2(c3cccc(-c4cccnc4F)c3)N=C(N)N(C)C2=O)cn1CCF` (centres unmarked) [Example 167] registered a melting point of 100 °C. The molecule also came in with an IC50 on human BACE1 of 10 to 100 nM.
The molecule `CN1C(=O)C(c2cccc(-c3cncnc3)c2)(c2cnn(CCC3CCCCC3)c2)N=C1N` (centres unmarked) [Example 107] came in with a melting point of 102 to 105 °C. The molecule also returned a concentration for half-maximal inhibition (IC50) on human BACE1 of 10 to 100 nM.
Turning to `CCCCNC(=O)c1cc(C2(c3cccc(-c4cccnc4F)c3)N=C(N)N(C)C2=O)cn1CC` (centres unmarked) [Example 160], the melting point lay within 118 to 120 °C. At human BACE1, the IC50 is 10 to 100 nM.
The corresponding values for `CN1C(=O)C(c2cccc(OCC3CC3)c2)(c2cnn(CCF)c2)N=C1N` (centres unmarked) [Example 70, 2-amino-5-[3-(cyclopropylmethoxy)phenyl]-5-[1-(2-fluoroethyl)-1H-pyrazol-4-yl]-3-methyl-3,5-dihydro-4H-imidazol-4-one] are 70 to 72 °C and 110 to 1000 nM.
Consider `CN1C(=O)C(c2cccc(-c3cc(F)ccc3F)c2)(c2cnn(CC(F)(F)F)c2)N=C1N` (centres unmarked) [Example 84], for which the melting point fell in the range of 98 to 100 °C. In addition, the 50% inhibitory concentration (IC50) on human BACE1 was in the range of 110 to 1000 nM.
Regarding `COC(=O)c1cc(C2(c3cccc(-c4ccc5c(c4)OCO5)c3)N=C(N)N(C)C2=O)cn1CCF` (centres unmarked) [Example 199], the melting point was 137 to 140 °C. The IC50 on human BACE1 lay within 110 to 1000 nM.
The molecule `CCCOc1cccc(C2(c3cccs3)N=C(N)N(C)C2=O)c1` (centres unmarked) [Example 141, 2-Amino-3-methyl-5-(3-propoxyphenyl)-5-thien-2-yl-3,5-dihydro-4H-imidazol-4-one] returned a melting point of 79 to 81 °C. In addition, on human BACE1, the IC50 was in the range of 110 to 1000 nM.
`CCOc1ccc(C2(c3cc(C(=O)NC)n(CC)c3)N=C(N)N(C)C2=O)cc1-c1cccnc1F` (centres unmarked) [Example 128] had a melting point of 148 to 150 °C. On human BACE1, this molecule came in with an IC50 greater than 1000 nM.
The molecule `CCn1cc(C2(c3cccc(-c4cccnc4F)c3)N=C(N)N(C)C2=O)cc1C(=O)N1CCCCC1` (centres unmarked) [Example 163] showed a melting point of 111 to 113 °C. Further, the half-inhibitory concentration (IC50) on human BACE1 was in the range of 10 to 100 nM.
In the same order, the values of `CC(C)CCn1cc(C2(c3cccc(-c4cncnc4)c3)N=C(N)N(C)C2=O)cn1` (centres unmarked) [Example 108] are 87 to 90 °C and 10 to 100 nM.
Consider `CCCn1cc(C2(c3cccc(-c4cccnc4F)c3)N=C(N)N(C)C2=O)cc1C(=O)CC` (centres unmarked) [Example 149, 2-Amino-5-[3-(2-fluoropyridin-3-yl)phenyl]-3-methyl-5-(5-propionyl-1-propyl-1H-pyrrol-3-yl)-3,5-dihydro-4H-imidazol-4-one], for which the melting point was 118 °C. For the same molecule, the IC50 on human BACE1 was 10 to 100 nM.
